Data from patent US8754115B2, “Fungicidal pyrazoles” (E I du Pont de Nemours and Company, priority 2010, dated 2014).
Marks after values point to notes of the source that are not given here.

Columns and labels:
Format in all cases: in vivo
[1] = test system: Blumeria graminis f. sp. tritici; test: Test F: preventive spray on wheat seedlings, visual disease rating (wheat powdery mildew)
In short: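 Compound in acetone/water (50/50) with 250 ppm surfactant, sprayed to run-off on wheat seedlings at 200 ppm (≈800 g/ha) or, where marked, 40 ppm. Seedlings dusted with spores the next day, kept 8 days at 20° C., then rated visually as % disease control versus untreated plants.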

Alternaria solani = test: Test B: preventive spray on tomato seedlings, visual disease rating (tomato early blight)
Excerpt: (§1) General protocol for preparing test suspensions for Tests A-F: the test compounds were first dissolved in acetone in an amount equal to 3% of the final volume and then suspended at the desired concentration (in ppm) in acetone and purified water (50/50 mix by volume) containing 250 ppm of the surfactant Trem® 014 (polyhydric alcohol esters). The resulting test suspensions were then used in Tests A-F. Spraying a 200 ppm test suspension to the point of run-off on the test plants was the equivalent of a rate of 800 g/ha. Unless otherwise indicated, the rating values indicate a 200 ppm test suspension was used. (An asterisk “*” next to the rating value indicates a 40 ppm test suspension was used.)
The test suspension was sprayed to the point of run-off on tomato seedlings. The following day the seedlings were inoculated with a spore suspension of Alternaria solani (the causal agent of tomato early blight) and incubated in a saturated atmosphere at 27° C. for 48 h, and then moved to a growth chamber at 20° C. for 5 days, after which time visual disease ratings were made.
(§2) Results for Tests A-F are given in Table A. In the Table, a rating of 100 indicates 100% disease control and a rating of 0 indicates no disease control (relative to the controls). A dash (-) indicates no test results. An asterisk “*” next to the rating value indicates a 40 ppm test suspension was used.

Septoria nodorum = test: Test C: preventive spray on wheat seedlings, visual disease rating (Septoria glume blotch)
In short: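 Wheat seedlings were sprayed to run-off with 200 ppm suspension (40 ppm where marked; 200 ppm ≈ 800 g/ha) in acetone/water with 250 ppm Trem 014, then inoculated next day with Septoria nodorum spores. Incubation was 48 h saturated at 24 °C, then 6 days at 20 °C; visual rating 0–100% disease control versus controls.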

Septoria tritici = test: Test D: preventive spray on wheat seedlings, visual disease rating (wheat leaf blotch)
In short: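 Wheat seedlings were sprayed to run-off with a 200 ppm suspension (equal to 800 g/ha), or 40 ppm where marked with an asterisk, and inoculated with Septoria tritici spores the next day. Plants were kept at 24 °C in saturated air for 48 h, then at 20 °C for 19 days. Disease control was rated visually from 0 to 100 relative to controls.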

[2] = test system: Puccinia recondite f. sp. tritici; test: Test E1: curative spray on wheat seedlings after inoculation, visual disease rating (wheat leaf rust)
Excerpt: as §1
Wheat seedlings were inoculated with a spore suspension of Puccinia recondite f. sp. tritici (the causal agent of wheat leaf rust) and incubated in a saturated atmosphere at 20° C. for 24 h, and then moved to a growth chamber at 20° C. for 2 days. After 2 days, the test suspension was sprayed to the point of run-off on the wheat seedlings, and then the seedlings were moved back to the growth chamber at 20° C. for 6 days. Upon removal, visual disease ratings were made.
as §2

Botrytis cinerea = test: Test A: preventive spray on tomato seedlings, visual disease rating (tomato Botrytis)
In short: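 Tomato seedlings sprayed to run-off with 200 ppm suspension (800 g/ha; asterisk marks 40 ppm), inoculated next day with Botrytis cinerea spores, held 48 h saturated at 20 °C then 3 days at 24 °C. Visual rating: 100 = full disease control, 0 = none, relative to controls.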

[3] = test system: Puccinia recondite f. sp. tritici; test: Test E2: preventive spray on wheat seedlings, visual disease rating (wheat leaf rust)
In short: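 Test suspension (acetone 3% of volume, acetone/water 50/50, 250 ppm Trem 014), 200 ppm unless starred (40 ppm), sprayed to run-off on wheat seedlings; inoculated next day with P. recondita spores. 24 h saturated atmosphere at 20 °C, then 7 days at 20 °C; visual rating, 100 = full control vs untreated.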

[4] = no asterisk: standard test suspension, not 40 ppm
[5] = no asterisk: standard test suspension, not 40 ppm, 100 = 100% disease control, 0 = none
[6] = asterisk: 40 ppm test suspension

Compound	Test F rating (% disease control) [1, 4]	Test B rating (% disease control) (Alternaria solani; [4])	Test C rating (% disease control) (Septoria nodorum; [4])	Test D rating (% disease control) (Septoria tritici; [4])	Test E1 rating (% disease control) [2, 4]	Test A rating (% disease control) (Botrytis cinerea; [5])	Test E2 rating (% disease control) [3, 4]	Test F rating (% disease control) [1, 6]	Test B rating (% disease control) (Alternaria solani; [6])	Test C rating (% disease control) (Septoria nodorum; [6])	Test D rating (% disease control) (Septoria tritici; [6])	Test E1 rating (% disease control) [2, 6]	Test A rating (% disease control) (Botrytis cinerea; [6])	Test E2 rating (% disease control) [3, 6]
α-(2,4-difluorophenyl)-5-(2,4-difluorophenyl)-1,3-dimethyl-1H-pyrazole-4-methanol [Compound 72]	99%	0%	0%	99%	0%	100%	40%							
Cc1nn(C)c(-c2c(F)cccc2F)c1C(O)c1ccc(F)cc1Br (stereo not shown) [compound 21]	98%	100%	100%	100%	100%	99%	100%							
Cc1nn(C)c(-c2ccc(F)cc2Br)c1C(=O)c1ccc(F)cc1Cl [compound 83]								99* %	0* %	0* %	25* %	0* %	55* %	74* %
α-(2,4-difluorophenyl)-5-(2,6-difluorophenyl)-1,3-dimethyl-1H-pyrazole-4-methanol [Compound 14]	97%	0%	0%	100%	75%	98%	98%							
Cc1nn(C)c(-c2c(F)cccc2F)c1S(=O)(=O)c1ccc(Cl)cc1 [compound 62]	94%	0%	0%	0%	0%	0%	28%							
Cc1nn(C)c(-c2c(F)cccc2F)c1Nc1ccc(F)cc1Cl [compound 50]	98%	93%	0%	100%	0%	99%	79%							
4-[(2-chloro-4-fluorophenyl)hydroxymethyl]-5-(2,6-difluorophenyl)-1-methyl-1H-pyrazole-3-carbonitrile [Compound 53]	96%	0%	0%	95%	91%	100%	97%							
COc1cc(F)c(C(O)c2c(C)nn(C)c2-c2ccc(F)cc2Cl)c(F)c1 (stereo not shown) [compound 20]								92* %	97* %	0* %	100* %	99* %	97* %	99* %
Cc1nn(C)c(-c2c(F)cccc2F)c1Nc1ccc(F)cc1F [compound 64]	97%	0%	0%	48%	0%	99%	55%							
Cc1nn(C)c(-c2ccc(F)cc2Cl)c1C(O)c1ccc(F)cc1F (stereo not shown) [compound 17]	100%	94%	60%	100%	83%	100%	100%							
Cc1nn(C)c(-c2ccc(F)cc2Cl)c1Nc1ccc(F)cc1 [compound 41]	0%	64%	0%	98%	0%	100%	41%							
COc1cc(F)c(C(O)c2c(C)nn(C)c2-c2c(F)cccc2Cl)c(F)c1 (stereo not shown) [compound 39]	99%	58%	60%	100%	97%	95%	100%							
Cc1nn(C)c(-c2c(F)cccc2Cl)c1C(O)c1c(Cl)cc(Cl)cc1Cl (stereo not shown) [compound 55]	95%	97%	78%	100%	99%	99%	100%							
Cc1nn(C)c(-c2c(F)cc(F)cc2F)c1C(=O)c1ccc(F)cc1Cl [compound 59]	100%	0%	0%	58%	0%	66%	80%							
3-bromo-5-(2-chloro-4-fluorophenyl)-α-(2,4-difluorophenyl)-1-methyl-1H-pyrazole-4-methanol [Compound 30]	99%	0%	0%	100%	100%	100%	100%							
Cc1nn(C)c(-c2c(F)cccc2Cl)c1C(O)c1ccc(F)cc1F (stereo not shown) [compound 33]	100%	100%	100%	100%	99%	100%	100%							
